Among the test systems are SN12C renal; A498 renal; KM12 colon; HCT-15 colon; NCI-H460 lung; MOLT-4 leukemia; UACC-62 melanoma; IGROV1 ovarian; HOP-92 NSCLC; OVCAR-3 ovarian; SK-MEL-28 melanoma; MCF7 breast; SK-MEL-2 melanoma; OVCAR-4 ovarian; T-47D breast; UO-31 renal; UACC-257 melanoma; SK-MEL-5 melanoma; COLO 205 colon; NCI-H226 lung.
Common to all, as to experiment: NCI-60 cell line screen, 48 h

SMILES strings stand for the structures.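 Dose response: 5 concentrations. Exposure: 48 h. Format: 96-well plates. Endpoint: linear interpolation; highest concentration if not reached. TGI marks complete inhibition of growth.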

Consider 7 molecules from PubChem BioAssay (NCI).

With `O=C(/C=C\c1ccccc1)Oc1ccc(/C=C2\CCCCC2=O)cc1`, the TGI with SN12C renal is over 100 µM; in the assay on A498 renal, over 100 µM; in the assay with KM12 colon, over 100 µM; in the assay on HCT-15 colon it was 79.7 µM; with NCI-H460 lung, over 100 µM; in the assay with MOLT-4 leukemia, 16.5 µM. Moreover, the TGI in the assay on UACC-62 melanoma is 0.136 µM; with IGROV1 ovarian it was over 100 µM; in the assay on HOP-92 NSCLC, over 100 µM; in the assay with OVCAR-3 ovarian, over 100 µM; in the assay with SK-MEL-28 melanoma, over 100 µM; with MCF7 breast it was over 100 µM. In addition, the TGI is over 100 µM in the assay with SK-MEL-2 melanoma; over 100 µM with OVCAR-4 ovarian; over 100 µM with T-47D breast; over 100 µM in the assay on UO-31 renal; 87.3 µM in the assay with UACC-257 melanoma; over 100 µM in the assay on SK-MEL-5 melanoma. For the same molecule, in the assay on COLO 205 colon, the TGI worked out at 62.9 µM.
Take `COc1cc2nc(-c3ccccc3F)[nH]c(=O)c2cc1OC`: the TGI with SN12C renal, in the assay on A498 renal, in the assay with KM12 colon, with HCT-15 colon, with NCI-H460 lung and in the assay on MOLT-4 leukemia was over 100 µM throughout. Further, the TGI in the assay on UACC-62 melanoma, in the assay with IGROV1 ovarian, in the assay with HOP-92 NSCLC, in the assay with OVCAR-3 ovarian, in the assay with MCF7 breast and in the assay with NCI-H226 lung was over 100 µM each time. The TGI with SK-MEL-2 melanoma, in the assay with OVCAR-4 ovarian, with T-47D breast, in the assay on UO-31 renal, in the assay on UACC-257 melanoma and in the assay with SK-MEL-5 melanoma was over 100 µM throughout. In the assay with COLO 205 colon, the TGI was over 100 µM.
As for `CN(C)c1nc(=NCc2cccs2)ss1`, the TGI was over 10 µM in the assay with SN12C renal; over 10 µM in the assay with A498 renal; over 10 µM in the assay on KM12 colon; over 10 µM in the assay on HCT-15 colon; over 10 µM with NCI-H460 lung; over 6.29 µM in the assay on MOLT-4 leukemia. For the same molecule, the TGI with UACC-62 melanoma, with IGROV1 ovarian, with HOP-92 NSCLC, in the assay with OVCAR-3 ovarian, with SK-MEL-28 melanoma and with MCF7 breast was over 10 µM in each case. Further, the TGI in the assay on NCI-H226 lung, in the assay with OVCAR-4 ovarian, with T-47D breast, with UO-31 renal, with UACC-257 melanoma and with SK-MEL-5 melanoma was over 10 µM in each case. Also, the TGI in the assay on COLO 205 colon was over 10 µM.
Consider `Cc1cc(S(=O)(=O)NC2=NC(c3ccccc3)c3ccccc3N2)c(S)cc1Cl` (stereo unspecified), for which the TGI in the assay on SN12C renal, in the assay on A498 renal, in the assay with KM12 colon, with HCT-15 colon, in the assay on NCI-H460 lung and in the assay with MOLT-4 leukemia was over 100 µM in each case. In addition, the TGI in the assay with UACC-62 melanoma, in the assay on IGROV1 ovarian, in the assay on HOP-92 NSCLC, with OVCAR-3 ovarian, in the assay on SK-MEL-28 melanoma and in the assay with MCF7 breast was over 100 µM each time. Moreover, the TGI is over 100 µM with NCI-H226 lung; over 100 µM with OVCAR-4 ovarian; over 100 µM in the assay on T-47D breast; 46.5 µM in the assay on UO-31 renal; over 100 µM in the assay on UACC-257 melanoma; over 100 µM with SK-MEL-5 melanoma. In the assay with COLO 205 colon, the TGI is over 100 µM.
For `CC(C)(C)OC(=O)NC(Cc1ccc(OCc2ccccc2)cn1)C(=O)NCc1ccccc1` (stereo unspecified), the TGI in the assay on SN12C renal is 64.6 µM; with A498 renal it was over 100 µM; with KM12 colon it was 97.8 µM; in the assay with HCT-15 colon, 72.8 µM; in the assay with NCI-H460 lung, 69.7 µM; in the assay on MOLT-4 leukemia, 42 µM. For the same molecule, the TGI with UACC-62 melanoma was 32.5 µM; in the assay on IGROV1 ovarian, over 100 µM; in the assay with HOP-92 NSCLC, 60.4 µM; with OVCAR-3 ovarian, 43.2 µM; in the assay on SK-MEL-28 melanoma, over 100 µM; with MCF7 breast, 97.9 µM. Besides, the TGI in the assay with SK-MEL-2 melanoma is 35.7 µM; with T-47D breast it was 56.5 µM; in the assay on UO-31 renal, 82.9 µM; in the assay with UACC-257 melanoma it was 34.5 µM; in the assay on SK-MEL-5 melanoma, 26 µM; in the assay on COLO 205 colon, 30.8 µM.
Consider `CC(=O)c1nc2ccccc2n1CC(=O)c1ccc(Cl)cc1`, for which the TGI in the assay on SN12C renal was over 100 µM; in the assay with A498 renal, over 100 µM; with KM12 colon it was over 100 µM; with HCT-15 colon it was over 100 µM; in the assay with NCI-H460 lung it was 22.5 µM; with MOLT-4 leukemia, over 100 µM. The TGI with UACC-62 melanoma was 27.8 µM; with IGROV1 ovarian it was 26.1 µM; in the assay on HOP-92 NSCLC, 22.5 µM; in the assay on OVCAR-3 ovarian it was 23.2 µM; in the assay on SK-MEL-28 melanoma it was over 100 µM; in the assay on MCF7 breast, over 100 µM. The TGI with NCI-H226 lung was over 100 µM; in the assay on SK-MEL-2 melanoma, 78.1 µM; with OVCAR-4 ovarian, over 100 µM; in the assay with T-47D breast it was over 100 µM; with UO-31 renal it was over 100 µM; with UACC-257 melanoma, over 100 µM. Besides, the TGI in the assay with COLO 205 colon is 53 µM.
On to `Cc1ccsc1C(=O)C(CC(=O)c1cccs1)c1ccsc1` (stereo unspecified), for which the TGI in the assay on SN12C renal, with A498 renal, with KM12 colon, with HCT-15 colon, in the assay with NCI-H460 lung and with MOLT-4 leukemia was over 100 µM each time. Further, the TGI in the assay with IGROV1 ovarian, with HOP-92 NSCLC, in the assay on OVCAR-3 ovarian, in the assay with SK-MEL-28 melanoma, in the assay with MCF7 breast and in the assay on NCI-H226 lung was over 100 µM in each case. In addition, the TGI in the assay with OVCAR-4 ovarian was over 100 µM; in the assay on T-47D breast, 77.1 µM; in the assay with UO-31 renal it was over 100 µM; in the assay on UACC-257 melanoma, over 100 µM; in the assay on SK-MEL-5 melanoma, over 100 µM; in the assay with COLO 205 colon it was over 100 µM.
